Like-named read-outs stand apart in the source and are kept apart here. Ends that are not written are not given here. Peptide text beside a SMILES is read from it. * marks the point of attachment. Hexanoyl = CCCCCC(=O)*
Legend:
tobacco leaves = details: 150 µM; after 48 h
horse erythrocytes = details: red cells of horse, 50 µM
[1] = test system: X. fastidiosa subsp. fastidiosa IVIA 5387.2; details: for EC50: 3 h
E. coli 0111:B4 LPS = assay type: biochemical, Escherichia coli

Compound	Phytotoxicity: diameter of the lesion (tobacco leaves) [mm]	Hemolytic activity (%) (horse erythrocytes)	Bactericidal activity Reduction in viability (Log N0/N) ([1]; 50 µM)	Bactericidal activity Level ([1]; 50 µM)	LPS neutralization Ratio (treatment/NTC) (E. coli 0111:B4 LPS)	further results
CCCCCC(=O)NCCCC[C@H](NC(=O)[C@@H](NC(=O)[C@H](CCCCN)NC(=O)[C@H](CCCCN)NC(=O)[C@H](Cc1ccccc1)NC(=O)[C@H](CC(C)C)NC(=O)[C@H](CCCCN)NC(=O)[C@H](CCCCN)NC(C)=O)[C@@H](C)CC)C(=O)N[C@@H](CCCCN)C(=O)N[C@@H](Cc1ccc(O)cc1)C(=O)N[C@@H](CC(C)C)C(N)=O [BP375, Ac-KKLFKKIK(COC5H11)KYL-NH2] (Ac-KKLFKKIK(Hexanoyl)KYL-NH2)	10	23	1,37 Log N0/N	–	–	–
CCCCCC(=O)NCCCC[C@H](NC(=O)[C@H](CCCCN)NC(=O)[C@H](CC(C)C)NC(=O)[C@@H](NC(=O)[C@H](CCCCN)NC(=O)[C@H](CCCCN)NC(=O)[C@H](Cc1ccccc1)NC(=O)[C@H](CC(C)C)NC(=O)[C@H](CCCCN)NC(=O)[C@H](CCCCN)NC(C)=O)[C@@H](C)CC)C(=O)N[C@@H](CC(C)C)C(N)=O [BP377, Ac-KKLFKKILKK(COC5H11)L-NH2] (Ac-KKLFKKILKK(Hexanoyl)L-NH2)	11	71	–	Very High (key: Very High: very high bactericidal activity (>2.5 log); High: high bactericidal activity (between 2.0 and 2.5 log); Moderate: a moderate activity (between 1.5 and 2.0 log); Low: low active (<1.5 log))	–	Bactericidal activity Reduction in viability (Log N0/N) ([1]; 3.1 µM): 1,34 Log N0/N; Bactericidal activity Reduction in viability (Log N0/N) ([1]; 12.5 µM): 1,88 Log N0/N; EC50 [1]: 3.67 µM
CCCC(=O)NCCCC[C@H](NC(=O)[C@@H](NC(=O)[C@H](CCCCN)NC(=O)[C@H](CCCCN)NC(=O)[C@H](Cc1ccccc1)NC(=O)[C@H](CC(C)C)NC(=O)[C@H](CCCCN)NC(=O)[C@H](CCCCN)NC(C)=O)[C@@H](C)CC)C(=O)N[C@@H](CCCCN)C(=O)N[C@@H](Cc1ccc(O)cc1)C(=O)N[C@@H](CC(C)C)C(N)=O [BP387, Ac‐KKLFKKIK(COC3H7)KYL‐NH2]	8	4	1,96 Log N0/N	Moderate (key: Very High: very high bactericidal activity (>2.5 log); High: high bactericidal activity (between 2.0 and 2.5 log); Moderate: a moderate activity (between 1.5 and 2.0 log); Low: low active (<1.5 log))	–	Bactericidal activity Reduction in viability (Log N0/N) ([1]; 12.5 µM): 0,83 Log N0/N
CCCC(=O)NCCCC[C@H](NC(=O)[C@H](CCCCN)NC(=O)[C@H](CC(C)C)NC(=O)[C@@H](NC(=O)[C@H](CCCCN)NC(=O)[C@H](CCCCN)NC(=O)[C@H](Cc1ccccc1)NC(=O)[C@H](CC(C)C)NC(=O)[C@H](CCCCN)NC(=O)[C@H](CCCCN)NC(C)=O)[C@@H](C)CC)C(=O)N[C@@H](CC(C)C)C(N)=O [BP389, Ac-KKLFKKILKK(COC3H7)L-NH2]	7	9	–	High (key: Very High: very high bactericidal activity (>2.5 log); High: high bactericidal activity (between 2.0 and 2.5 log); Moderate: a moderate activity (between 1.5 and 2.0 log); Low: low active (<1.5 log))	–	Bactericidal activity Reduction in viability (Log N0/N) ([1]; 3.1 µM): 0,02 Log N0/N; Bactericidal activity Reduction in viability (Log N0/N) ([1]; 12.5 µM): 1,51 Log N0/N
CCCCCCCCCCCC(=O)NCCCC[C@H](NC(=O)[C@H](CCCCN)NC(C)=O)C(=O)N[C@@H](CC(C)C)C(=O)N[C@@H](Cc1ccccc1)C(=O)N[C@@H](CCCCN)C(=O)N[C@@H](CCCCN)C(=O)N[C@H](C(=O)N[C@@H](CC(C)C)C(=O)N[C@@H](CCCCN)C(=O)N[C@@H](Cc1ccc(O)cc1)C(=O)N[C@@H](CC(C)C)C(N)=O)[C@@H](C)CC [BP393, Ac-KK(COC11H23)LFKKILKYL-NH2]	6	–	–	High (key: Very High: very high bactericidal activity (>2.5 log); High: high bactericidal activity (between 2.0 and 2.5 log); Moderate: a moderate activity (between 1.5 and 2.0 log); Low: low active (<1.5 log))	–	EC50 [1]: 20.1 µM
CCCC(=O)NCCCC[C@H](NC(=O)[C@H](CCCCN)NC(=O)[C@@H](Cc1ccccc1)NC(=O)[C@H](CC(C)C)NC(=O)[C@H](CCCCN)NC(=O)[C@H](CCCCN)NC(C)=O)C(=O)N[C@H](C(=O)N[C@@H](CC(C)C)C(=O)N[C@@H](CCCCN)C(=O)N[C@@H](Cc1ccc(O)cc1)C(=O)N[C@@H](CC(C)C)C(N)=O)[C@@H](C)CC [BP473, Ac-KKLfKK(COC3H7)ILKYL-NH2]	4	7	–	Very High (key: Very High: very high bactericidal activity (>2.5 log); High: high bactericidal activity (between 2.0 and 2.5 log); Moderate: a moderate activity (between 1.5 and 2.0 log); Low: low active (<1.5 log))	–	Bactericidal activity Reduction in viability (Log N0/N) ([1]; 3.1 µM): 0,64 Log N0/N; EC50 [1]: 4.75 µM
CCCC(=O)NCCCC[C@H](NC(=O)[C@@H](NC(=O)[C@H](CCCCN)NC(=O)[C@H](CCCCN)NC(=O)[C@@H](Cc1ccccc1)NC(=O)[C@H](CC(C)C)NC(=O)[C@H](CCCCN)NC(=O)[C@H](CCCCN)NC(C)=O)[C@@H](C)CC)C(=O)N[C@@H](CCCCN)C(=O)N[C@@H](Cc1ccc(O)cc1)C(=O)N[C@@H](CC(C)C)C(N)=O [BP474, Ac-KKLfKKIK(COC3H7)KYL-NH2]	2	0	1,76 Log N0/N	Moderate (key: Very High: very high bactericidal activity (>2.5 log); High: high bactericidal activity (between 2.0 and 2.5 log); Moderate: a moderate activity (between 1.5 and 2.0 log); Low: low active (<1.5 log))	–	–
CCCC(=O)NCCCC[C@H](NC(=O)[C@H](CCCCN)NC(=O)[C@H](CC(C)C)NC(=O)[C@@H](NC(=O)[C@H](CCCCN)NC(=O)[C@H](CCCCN)NC(=O)[C@@H](Cc1ccccc1)NC(=O)[C@H](CC(C)C)NC(=O)[C@H](CCCCN)NC(=O)[C@H](CCCCN)NC(C)=O)[C@@H](C)CC)C(=O)N[C@@H](CC(C)C)C(N)=O [BP475, Ac-KKLfKKILKK(COC3H7)L-NH2]	4	0	–	High (key: Very High: very high bactericidal activity (>2.5 log); High: high bactericidal activity (between 2.0 and 2.5 log); Moderate: a moderate activity (between 1.5 and 2.0 log); Low: low active (<1.5 log))	–	Bactericidal activity Reduction in viability (Log N0/N) ([1]; 12.5 µM): 1,04 Log N0/N
CC[C@H](C)[C@H](NC(=O)CN)C(=O)NCC(=O)N[C@@H](C)C(=O)N[C@H](C(=O)N[C@@H](CC(C)C)C(=O)N[C@@H](CCCCN)C(=O)N[C@H](C(=O)N[C@@H](CC(C)C)C(=O)N[C@H](C(=O)N[C@H](C(=O)NCC(=O)N[C@@H](CC(C)C)C(=O)N1CCC[C@H]1C(=O)N[C@@H](C)C(=O)N[C@@H](CC(C)C)C(=O)N[C@H](C(=O)N[C@@H](CO)C(=O)N[C@@H](Cc1c[nH]c2ccccc12)C(=O)N[C@H](C(=O)N[C@@H](CCCCN)C(=O)N[C@@H](CCCNC(=N)N)C(=O)N[C@@H](CCCCN)C(=O)N[C@@H](CCCNC(=N)N)C(=O)N[C@@H](CCC(N)=O)C(=O)N[C@@H](CCC(N)=O)C(N)=O)[C@@H](C)CC)[C@@H](C)CC)[C@@H](C)O)[C@@H](C)O)C(C)C)C(C)C [Melittin, reference compound]	10	–	–	–	–	–
Ac-LKLFKKILKVL-NH2 [BP022]	–	–	1,87 Log N0/N	Moderate (key: Very High: very high bactericidal activity (>2.5 log); High: high bactericidal activity (between 2.0 and 2.5 log); Moderate: a moderate activity (between 1.5 and 2.0 log); Low: low active (<1.5 log))	0,61	–
CF-KKLfKK(COC3H7)ILKYL-NH2 [BP473-CF]	–	–	–	–	–	Bactericidal activity Reduction in viability (Log N0/N) [1]: 0,91 Log N0/N
FKLFKKILKVL-NH2 [BP013]	–	–	1,03 Log N0/N	–	1,13	–
KKLFKKILKFL-NH2 [BP076]	–	–	0,91 Log N0/N	–	0,36	–
KKLFKKILKKL-NH2 [BP016]	–	–	0,00 Log N0/N	–	1,13	–
KKLFKKILKVL-NH2 [BP015]	–	–	1,13 Log N0/N	–	1,10	–
KKLFKKILKYL-NH2 [BP100]	–	–	1,92 Log N0/N	Moderate (key: Very High: very high bactericidal activity (>2.5 log); High: high bactericidal activity (between 2.0 and 2.5 log); Moderate: a moderate activity (between 1.5 and 2.0 log); Low: low active (<1.5 log))	0,34	–
KKLFKkILKYL-NH2 [BP146]	–	–	1,25 Log N0/N	–	0,73	–
KKLfKKILKYL-NH2 [BP143]	–	–	0,89 Log N0/N	–	0,70	–
KKVVFWVKFk-NH2 [BP442]	–	–	1,09 Log N0/N	Low (key: Very High: very high bactericidal activity (>2.5 log); High: high bactericidal activity (between 2.0 and 2.5 log); Moderate: a moderate activity (between 1.5 and 2.0 log); Low: low active (<1.5 log))	0,76	–
KKlFKKILKYL-NH2 [BP144]	–	–	0,68 Log N0/N	–	1,07	–
KkLFKKILKYL-NH2 [BP145]	–	–	1,08 Log N0/N	–	0,76	–
RKVRGPP-NH2 [Lf(28-34), RKVRGPP-NH2, reference compound]	0	1	–	–	–	–
c(LLKKKWKKLQ) (cyclic) [BPC098W]	–	–	0,78 Log N0/N	Low (key: Very High: very high bactericidal activity (>2.5 log); High: high bactericidal activity (between 2.0 and 2.5 log); Moderate: a moderate activity (between 1.5 and 2.0 log); Low: low active (<1.5 log))	0,83	–
